In PubChem BioAssay AID1159558 (GlaxoSmithKline (GSK), 2015):
The source made the active and inactive calls.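 How the source made its calls: active means IC50 against T. cruzi CYP51 below a set limit; inactive means the rest.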

Target: Sterol 14-alpha demethylase (Trypanosoma cruzi (strain CL Brener)) (UniProt Q7Z1V1)
Test: TcCYP51 inhibitors, dose response, mechanism study for T. cruzi antiparasitic project, biochemical, recombinant enzyme (AID 1159558);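 further: enzyme in bacterial membranes with Anopheles gambiae CYP reductase and cytochrome b5 partners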
Conditions: recombinant T. cruzi CYP51, BOMCC fluorescence

Sequence of Sterol 14-alpha demethylase (Trypanosoma cruzi (strain CL Brener)) (Q7Z1V1 whole entry, looked up): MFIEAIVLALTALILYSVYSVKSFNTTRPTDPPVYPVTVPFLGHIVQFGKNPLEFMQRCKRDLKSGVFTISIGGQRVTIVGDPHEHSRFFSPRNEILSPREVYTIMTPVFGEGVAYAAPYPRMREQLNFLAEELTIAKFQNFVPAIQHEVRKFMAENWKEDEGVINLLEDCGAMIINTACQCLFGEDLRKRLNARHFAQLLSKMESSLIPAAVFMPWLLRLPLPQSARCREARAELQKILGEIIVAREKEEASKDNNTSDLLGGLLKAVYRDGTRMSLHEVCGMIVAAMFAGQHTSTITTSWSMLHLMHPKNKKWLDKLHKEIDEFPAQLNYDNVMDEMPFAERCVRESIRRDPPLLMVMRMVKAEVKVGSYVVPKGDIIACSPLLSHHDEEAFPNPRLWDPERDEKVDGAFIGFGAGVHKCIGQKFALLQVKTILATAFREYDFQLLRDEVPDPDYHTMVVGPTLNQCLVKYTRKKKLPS

| SMILES | IC50 |
| --- | --- |
| Cc1nc(-c2nc(NCc3ccc(Cl)cc3)c3cccnc3c2O)n[nH]1 | 16 µM |
| COc1ccc2ncc(F)c(NC(=O)C3(O)CCC(NCc4ccc5c(c4)OCCO5)CC3)c2n1 (stereo unspecified) | 63 µM |
| CC(Cn1ccnc1)NC(=O)C1CC1c1cccc(Cl)c1Cl (stereo unspecified) | 0.13 µM |
| c1ccc(CCNCc2cncc3nc(-c4cnccn4)n(C4CCCCC4)c23)cc1 | 0.1 µM |
| COc1ccccc1-c1c(C)[nH]c2nc(N)nc(C)c12 | > 100 µM (inactive) |
| COc1ccc(Nc2nc(NC3CCC(O)CC3)ncc2Br)c(C(N)=O)c1 (stereo unspecified) | 13 µM |
| COc1ccc(-c2cnc(NC(=O)c3ccc(F)cc3)n2C)cc1 | 10 µM |
| COc1cccc(S(=O)(=O)Nc2ccc3c(c2)CC(N2CCC(NC(=O)C4CC4)CC2)C3)c1 (stereo unspecified) | 63 µM |
| Cc1ccc2ccc(C(Nc3ccccn3)c3cccnc3)c(O)c2n1 (stereo unspecified) | 0.05 µM |
| COCc1cc(Nc2ccccc2)nc(-c2ccccn2)n1 | > 100 µM (inactive) |
| Cc1sc(C)c(C(F)(F)F)c1CNCCCNc1cc(=O)c2ccccc2[nH]1 | 20 µM |
| O=C(NCC(c1cccnc1)N1CCc2ccccc2C1)C(=O)Nc1cccc(Cl)c1 (stereo unspecified) | 0.063 µM |
| Cc1cc(C)n(-c2nc(NC(C)(C)C)nc(N3CCOCC3)n2)n1 | > 100 µM (inactive) |
| Cc1ccc(Nc2nc(C3CCCN3Cc3ccn[nH]3)cs2)nc1 (stereo unspecified) | 6.3 µM |
| Cc1cc2ncn(-c3ccc([N+](=O)[O-])cc3C#N)c2cc1C | > 100 µM (inactive) |
| Cc1cc(N(C)C)nc(Nc2ccccc2C)n1 | > 100 µM (inactive) |
| O=C(NCc1nnc2n1CCCCC2)c1csc(-c2ccccc2)n1 | > 100 µM (inactive) |
| COc1ncc(-c2ccc3nccc(-c4ccncc4)c3c2)cc1NS(C)(=O)=O | 79 µM |
| CCCn1c(NC(=O)CCn2cc(Br)cn2)nc2ccccc21 | 10 µM |
| CNc1nc(C)nc(N2CCc3cc(C(=O)NCc4ccc(-c5nccn5C)cc4Cl)ccc32)n1 | 1.6 µM |
| COc1ccccc1C=CCN1C[C@H]2CCC[C@@H](C1)C2(O)c1cccnc1 (stereo partly specified) | 0.13 µM |

| SMILES | IC50 |
| --- | --- |
| CC(C)CC(=O)NC(c1cccs1)c1ccc2cccnc2c1O (stereo unspecified) | 50 µM |
| N#Cc1cccc(Nc2nccc(N3CCC(NS(=O)(=O)c4cccc(C#N)c4)CC3)n2)c1 | 7.9 µM |
| CCc1cc(C(=O)Nc2nccn2-c2ccccc2)cs1 | > 100 µM (inactive) |
| O=C(NCc1ccncc1)c1ccccc1N1CCCN(C(=O)Cc2ccc(F)c(F)c2)CC1 | 0.079 µM |
| CS(=O)(=O)c1cccc(-c2cnc(N)c3c(-c4ccc(CO)cc4)csc23)c1 | 3.2 µM |
| Cc1nc2c(-c3nc(-c4ccc(N)cc4)n[nH]3)cccn2c1C | > 100 µM (inactive) |
| CC1CN(Cc2ccc(C#N)cc2)CCN1c1ccc(NC(=O)c2ccccc2F)cc1 (stereo unspecified) | 32 µM |
| O=C(Nc1cccc(S(=O)(=O)Nc2ccc(Br)cc2)c1)c1ccc([N+](=O)[O-])s1 | 2.5 µM |
| COc1ccc(C(C)(C)C)cc1S(=O)(=O)n1ccnc1 | 0.0079 µM |
| O=C(NCc1ccc(Cl)cc1)C1CN(C(=O)c2ccc(F)cc2)CCS1 (stereo unspecified) | 13 µM |
| O=C1CN(C(=O)c2cccc(Nc3ncc(-c4ccc5c(c4)OCO5)cn3)c2)CCN1 | 25 µM |
| COc1ccc(S(=O)(=O)NCc2ccc(-c3ccc(CN(C)CCO)cc3)cc2)cc1 | 16 µM |
| Cn1cc(CN2CCN(c3ccc4c(c3)CCN(C(=O)[C@H]3C[C@@H]3c3ccccc3)CC4)CC2)cn1 | 16 µM |
| CN(C(=O)Nc1ccc2c(c1)CCN(C1CCC1)CC2)c1ccc(C#N)cc1 | > 100 µM (inactive) |
| CCOc1ccc(CC(=O)N2c3ccccc3CC2C(=O)NC)cc1 (stereo unspecified) | > 100 µM (inactive) |
| C=CC[C@@H]1CC=C[C@@H](C)N1C(=O)CCc1nnc(-c2ccc3c(c2)OCO3)o1 | 40 µM |
| c1ccc(Nc2nc(-c3ccccn3)cc(N3CCOCC3)n2)cc1 | > 100 µM (inactive) |
| Cc1nn(-c2nc(N)nc(-c3ccccn3)n2)c(C)c1Cc1ccccc1 | 63 µM |
| CCCc1nc2nc(N)nc(N)c2cc1CC | > 100 µM (inactive) |
| COc1cc(-c2noc(CC#N)n2)ccc1OC(F)F | 100 µM |
| COc1cccc(C(=O)[C@H]2C[C@@H]2CN(Cc2cccnc2)Cc2cccnc2)c1 | 0.063 µM |

| SMILES | IC50 |
| --- | --- |
| c1cc(-c2ncc(-c3ccn[nH]3)s2)ccn1 | 0.04 µM |
| N#Cc1ccc(S(=O)(=O)N2CCC3(CCN(c4ccccc4)C3=O)CC2)cc1 | > 100 µM (inactive) |
| Cc1cccc(NS(=O)(=O)c2ccc3c(c2)C(=O)c2cc(S(=O)(=O)Nc4cccc(C)c4C)ccc2-3)c1C | > 100 µM (inactive) |
| O=C(Nc1nc2ccccc2[nH]1)c1ccc2nc[nH]c2c1 | 5 µM |
| O=C(CCCNC(=O)c1ccc(Cl)cc1)Nc1nc(-c2ccccn2)cs1 | 3.2 µM |
| CC(C)Oc1cccc(N2CCC(C(=O)N3CCCN(C(C)C)CC3)CC2)c1 | > 100 µM (inactive) |
| COc1ccc2ncc(Cl)c(CCN3CC[C@H](NCc4cc5c(cn4)OCS5)[C@@H](O)C3)c2n1 | 7.9 µM |
| COc1ccc(S(=O)(=O)Nc2ccc(CN3CCN(C(=O)c4cccc(C#N)c4)CC3)cc2)cc1 | > 100 µM (inactive) |
| O=C(Nc1nc2ccccc2[nH]1)c1c(O)c2cccc3c2n(c1=O)CC3 | > 100 µM (inactive) |
| Cc1nc(N2CC(C)OC(C)C2)sc1C(=O)Nc1ccc2c(c1)OCO2 (stereo unspecified) | 40 µM |
| CCN(CC)c1ncc(C(=O)c2ccc([N+](=O)[O-])o2)s1 | 40 µM |
| Cc1nc(-c2ccc3c(c2)OCO3)sc1C(=O)NCc1ccc2c(c1)OCO2 | 5 µM |
| O=c1[nH]c(NCCCNCc2cc(Br)cc(Br)c2)nc2ccsc12 | 32 µM |
| CCC(=O)Nc1ccc(C(=O)Nc2ccccc2-c2ccccc2)cc1 | > 100 µM (inactive) |
| COc1ccc(NS(=O)(=O)c2cc(NC(=O)c3ccc([N+](=O)[O-])s3)ccc2OC)cc1 | 1 µM |
| COc1ccc(C2=NCC(CSc3nnc(-c4ccc5c(c4)OCO5)o3)S2)cc1 (stereo unspecified) | 10 µM |
| Clc1ccc(CN2CCN(C3=NCCN3)CC2)cc1Cl | > 100 µM (inactive) |
| N#Cc1cc(N2CCCC2=O)ccc1Sc1ccccc1CO | 20 µM |
| CC(C)COC(=O)Nc1ccc(N2CCC(CNS(=O)(=O)c3ccccc3)CC2)c(F)c1 | 2 µM |
